Type in all cases: binding
Experiment [1] has as its target T1, PCSK9 (Homo sapiens, UniProt Q8NBP7).
T1 construct: biotin (biotinylated); purchased
Briefly: PCSK9 Alexa FRET Plus TR-FRET assay. As for the experimental part:
A separate solution containing 1920 nM of the AlexaFluor tagged cyclic peptide is made in the same buffer system. […] The reaction is incubated at room temperature for at least two hours prior to fluorescence measurements using an Envision Multilabel Reader. IC50 values are determined by fitting data to a sigmoidal dose-response curve using nonlinear regression. Ki is then calculated from the Ic50 and the KD of AF cyclic peptide. Counts (B-counts) of the europium-labeled PCSK9 are followed to observe if compounds are adversely affecting PCSK9. A fall off of the B-counts is likely indicates a false positive of inhibition. Data from this procedure is reported as “P=‘numerical value’ (nanomolar)”
On the technique in general: Time-resolved FRET reads energy transfer from a long-lived donor to a nearby acceptor.

Experiment [2] concerns the target T1, PCSK9. In words: PCSK9 Alexa FRET Standard TR-FRET assay. Particulars: Ki calculated from IC50 and KD of AF cyclic peptide Reagent A; 0.5 nM PCSK9, 20 nM AF cyclic peptide; read-out: Alexa FRET Stdt TR-FRET. As for the experimental part:
A solution containing 1 nM biotinylated PCSK9+2.5 nM Lance Streptavidin Europium (Strep-Eu) is made in 50 mM HEPES pH 7.4, 0.15 M NaCl, 5 mM CaCl2, 0.01% BSA, and 0.01% Surfactant P20. A separate solution containing 40 nM of the AlexaFluor tagged cyclic peptide is made in the same buffer system. An Echo is used to transfer 0.750 ul of compound to an assay plate followed by the addition of 15 ul of PCSK9+Stept-Eu and 15 ul of AF peptide. The final assay volume is 30.750 ul containing 0.5 nM PCSK9, 1.25 nM Strep-Eu, and 20 nM AF cyclic peptide. The reaction is incubated at room temperature for at least two hours prior to fluorescence measurements using an Envision Multilabel Reader. IC50 values are determined by fitting data to a sigmoidal dose-response curve using nonlinear regression. Ki is then calculated from the Ic50 and the KD of AF cyclic peptide. Counts (B-counts) of the europium-labeled PCSK9 are followed to observe if compounds are adversely PCSK9. A fall off of the B-counts likely indicates a false positive of inhibition. Data from this procedure is reported as “A=‘numerical value’ (nanomolar)”

Experiment [3] has as its target T1, PCSK9. Briefly: PCSK9 Alexa FRET Ultra TR-FRET assay. As for the experimental part:
A separate solution containing 1920 nM of the AlexaFluor tagged cyclic peptide is made in the same buffer system. […] The reaction is incubated at room temperature for at least two hours prior to fluorescence measurements using an Envision Multilabel Reader. IC50 values are determined by fitting data to a sigmoidal dose-response curve using nonlinear regression. Ki is then calculated from the Ic50 and the KD of AF cyclic peptide. Counts (B-counts) of the europium-labeled PCSK9 are followed to observe if compounds are adversely affecting PCSK9. A fall off of the B-counts is likely indicates a false positive of inhibition. Data from this procedure is reported as “Ki Ultra=‘numerical value’ (data reported is nanomolar)”

Setting [4] is: Ki calculated from IC50 and KD of AF cyclic peptide Reagent B, 0.5 nM PCSK9, 960 nM AF cyclic peptide, read-out: Alexa FRET Plus TR-FRET.
Setting [5] is: Ki Ultra, calculated from IC50 and KD of AF cyclic peptide, 0.5 nM PCSK9, 960 nM AF cyclic peptide, read-out: Alexa FRET Ultra TR-FRET.

T1 sequence (Q8NBP7 153-692): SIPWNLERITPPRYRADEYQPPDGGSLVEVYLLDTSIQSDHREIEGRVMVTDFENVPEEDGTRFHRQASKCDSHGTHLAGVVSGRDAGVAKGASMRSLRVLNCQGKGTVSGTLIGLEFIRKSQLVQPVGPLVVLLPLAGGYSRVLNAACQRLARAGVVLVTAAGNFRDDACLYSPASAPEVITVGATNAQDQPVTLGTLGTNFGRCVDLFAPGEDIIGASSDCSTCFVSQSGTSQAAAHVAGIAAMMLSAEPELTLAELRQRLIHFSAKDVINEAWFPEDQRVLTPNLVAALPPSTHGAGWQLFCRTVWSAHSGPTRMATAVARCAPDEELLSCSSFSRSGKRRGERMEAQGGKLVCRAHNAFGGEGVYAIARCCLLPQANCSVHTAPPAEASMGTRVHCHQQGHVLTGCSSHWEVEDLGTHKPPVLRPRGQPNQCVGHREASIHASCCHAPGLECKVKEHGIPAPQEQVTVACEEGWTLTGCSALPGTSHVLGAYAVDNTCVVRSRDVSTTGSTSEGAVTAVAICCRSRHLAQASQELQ

With `COc1ccc(C[C@@H]2NC(=O)[C@H]([C@@H](C)O)NC(=O)[C@@H]3[C@@H]4CCN3C(=O)[C@@H]3Cc5cn(c6ccc(F)cc56)CCCCCCN(Cc5ccc(cc5)CCNC(=O)[C@]5(C)CCCN5C2=O)C(=O)CCC(=O)N[C@@H](C)C(=O)N[C@H](CNC(=O)COCCOCC[N+](C)(C)CCOCCNC(=O)COCCOCCNC(=O)COCCOCCNC(=O)CC[C@H](NC(=O)CCCCCCCCCCCCCCC(=O)O)C(=O)O)C(=O)N[C@@H](Cc2cccc(c2)CNC(=O)CO4)C(=O)N3)cc1` [compound 45], the Ki on PCSK9 [1] (setting [4]) was less than 0.006 nM; at PCSK9 [2] it was less than 1.26 nM; on PCSK9 [3] (setting [5]), 0.002 nM.

As for `COc1ccc(C[C@@H]2NC(=O)[C@H]([C@@H](C)O)NC(=O)[C@@H]3[C@@H]4CCN3C(=O)[C@@H]3Cc5cn(c6ccc(F)cc56)CCCCCCN(Cc5ccc(cc5)CCNC(=O)[C@]5(C)CCCN5C2=O)C(=O)CCC(=O)N[C@@H](CNC(=O)COCCOCC[N+](C)(C)CCNC(=O)COCCOCCNC(=O)COCCOCCNC(=O)CC[C@H](NC(=O)CCCCCCCCOCCCCCCCCC(=O)O)C(=O)O)C(=O)N[C@H](C)C(=O)N[C@@H](Cc2cccc(c2)CNC(=O)CO4)C(=O)N3)cc1` [Ex-62], the figures for the Ki at PCSK9 [1], at PCSK9 [2] and on PCSK9 [3] were less than 0.006 nM, less than 1.26 nM and 0.038 nM, respectively.

In the case of `CCCCCCCCCCCCCCCC(=O)NCC[N+](C)(C)CCOCCOCCC(=O)NC[C@H]1NC(=O)[C@H](C)NC(=O)CCC(=O)N2CCCCCCn3cc(c4cc(F)ccc43)C[C@@H]3NC(=O)[C@H](Cc4cccc(c4)CNC(=O)CO[C@H]4CCN(C3=O)[C@@H]4C(=O)N[C@@H]([C@@H](C)O)C(=O)N[C@@H](Cc3ccc(OC)cc3)C(=O)N3CCC[C@@]3(C)C(=O)NCCc3ccc(cc3)C2)NC1=O` [Ex-36], the Ki on PCSK9 [1] (setting [4]) is 0.044 nM; at PCSK9 [2] it was less than 1.26 nM; on PCSK9 [3] (setting [5]) it was 0.016 nM.

Turning to `COc1ccc(C[C@@H]2NC(=O)[C@H]([C@@H](C)O)NC(=O)[C@@H]3[C@@H]4CCN3C(=O)[C@@H]3Cc5cn(c6ccc(F)cc56)C/C=C/CCCN(Cc5ccc(cc5)CCNC(=O)[C@]5(C)CCCN5C2=O)C(=O)CCC(=O)N[C@@H](C)C(=O)N[C@H](CNC(=O)CCCCC[N+](C)(C)CCNC(=O)COCCOCCNC(=O)COCCOCCNC(=O)CC[C@H](NC(=O)CCCCCCCCCCCCCCCCC(=O)O)C(=O)O)C(=O)N[C@@H](Cc2cccc(c2)CNC(=O)CO4)C(=O)N3)cc1` [Ex-25], the figures for the Ki at PCSK9 [1] (setting [4]), on PCSK9 [2] and at PCSK9 [3] (setting [5]) were 0.006 nM, less than 1.26 nM and 0.009 nM, respectively.

As to `COc1ccc(C[C@@H]2NC(=O)[C@H]([C@@H](C)O)NC(=O)[C@@H]3[C@@H]4CCN3C(=O)[C@@H]3Cc5cn(c6ccc(F)cc56)CCCCCCN(Cc5ccc(cc5)CCNC(=O)[C@]5(C)CCCN5C2=O)C(=O)CCC(=O)N[C@@H](C)C(=O)N[C@H](CNC(=O)CCCCC[N+](C)(C)CCNC(=O)COCCOCCNC(=O)COCCOCCNC(=O)CC[C@H](NC(=O)CCCCCCCCCCCCCCCCCCC(=O)O)C(=O)O)C(=O)N[C@@H](Cc2cccc(c2)CNC(=O)CO4)C(=O)N3)cc1` [Ex-27], the Ki on PCSK9 [1] is 0.014 nM; at PCSK9 [2], less than 1.26 nM; on PCSK9 [3], 0.006 nM.

Consider `COc1ccc(C[C@@H]2NC(=O)[C@H]([C@@H](C)O)NC(=O)[C@@H]3[C@@H]4CCN3C(=O)[C@@H]3Cc5cn(c6ccc(F)cc56)CCCCCCN(Cc5ccc(cc5)CCNC(=O)[C@]5(C)CCCN5C2=O)C(=O)CCC(=O)N[C@@H](C)C(=O)N[C@H](CNC(=O)CCCCC[N+](C)(C)CCNC(=O)CCCCC[N+](C)(C)CCNC(=O)COCCOCCNC(=O)COCCOCCNC(=O)CC[C@H](NC(=O)CCCCCCCCCCCCCCCCC(=O)O)C(=O)O)C(=O)N[C@@H](Cc2cccc(c2)CNC(=O)CO4)C(=O)N3)cc1` [Ex-26], for which the Ki was 0.006 nM on PCSK9 [1] (setting [4]), less than 1.26 nM on PCSK9 [2] and 0.008 nM at PCSK9 [3] (setting [5]).

Consider `COc1ccc(C[C@@H]2NC(=O)[C@H]([C@@H](C)O)NC(=O)[C@@H]3[C@@H]4CCN3C(=O)[C@@H]3Cc5cn(c6ccc(F)cc56)CCCCCCN(Cc5ccc(cc5)CCNC(=O)[C@]5(C)CCCN5C2=O)C(=O)CCC(=O)N[C@@H](CNC(=O)CCOCCOCC[N+](C)(C)CCNC(=O)COCCOCCNC(=O)COCCOCCNC(=O)CC[C@H](NC(=O)CCCCCCCCCCCCCCC(=O)O)C(=O)O)C(=O)N[C@H](C)C(=O)N[C@@H](Cc2cccc(c2)CNC(=O)CO4)C(=O)N3)cc1` [Ex-57], for which the Ki is 0.009 nM on PCSK9 [1] (setting [4]), less than 1.26 nM at PCSK9 [2] and 0.034 nM on PCSK9 [3] (setting [5]).

Regarding `COc1ccc(C[C@@H]2NC(=O)[C@H]([C@@H](C)O)NC(=O)[C@@H]3[C@@H]4CCN3C(=O)[C@@H]3Cc5cn(c6ccc(F)cc56)CCCCCCN(Cc5ccc(cc5)CCNC(=O)[C@]5(C)CCCN5C2=O)C(=O)CCC(=O)N[C@@H](C)C(=O)N[C@H](CNC(=O)CCOCCOCC[N+](C)(C)CCNC(=O)COCCOCCNC(=O)COCCOCCNC(=O)CC[C@H](NC(=O)CCCCCCCCCCCCCCCCC(=O)O)C(=O)O)C(=O)N[C@@H](Cc2cccc(c2)CNC(=O)CO4)C(=O)N3)cc1` [Ex-22], the Ki at PCSK9 [1] (setting [4]) was 0.015 nM; on PCSK9 [2] it was less than 1.26 nM; on PCSK9 [3] (setting [5]), 0.004 nM.

For `COc1ccc(C[C@@H]2NC(=O)[C@H]([C@@H](C)O)NC(=O)[C@@H]3[C@@H]4CCN3C(=O)[C@@H]3Cc5cn(c6ccc(F)cc56)CCCCCCN(Cc5ccc(cc5)CCNC(=O)[C@]5(C)CCCN5C2=O)C(=O)CCC(=O)N[C@@H](C)C(=O)N[C@H](CNC(=O)COCCOCCNC(=O)COCCOCCNC(=O)CCOCCOCC[N+](C)(C)CCNC(=O)COCCOCCNC(=O)COCCOCCNC(=O)CC[C@H](NC(=O)CCCCCCCCCCCCCCCCC(=O)O)C(=O)O)C(=O)N[C@@H](Cc2cccc(c2)CNC(=O)CO4)C(=O)N3)cc1` [Ex-29], the Ki was 0.011 nM on PCSK9 [1] (setting [4]), less than 1.26 nM at PCSK9 [2] and 0.013 nM on PCSK9 [3] (setting [5]).

For the compound `COc1ccc(C[C@@H]2NC(=O)[C@H]([C@@H](C)O)NC(=O)[C@@H]3[C@@H]4CCN3C(=O)[C@@H]3Cc5cn(c6ccc(F)cc56)CCCCCCN(Cc5ccc(cc5)CCNC(=O)[C@]5(C)CCCN5C2=O)C(=O)CCC(=O)N[C@@H](C)C(=O)N[C@H](CNC(=O)COCCOCC[N+](C)(C)CCNC(=O)COCCOCCNC(=O)COCCOCCNC(=O)CC[C@H](NC(=O)CCCCCCCCCCCCCCCCC(=O)O)C(=O)O)C(=O)N[C@@H](Cc2cccc(c2)CNC(=O)CO4)C(=O)N3)cc1` [Ex-40], the Ki is 0.008 nM at PCSK9 [1] (setting [4]), less than 1.26 nM at PCSK9 [2] and 0.004 nM on PCSK9 [3] (setting [5]).

With `COc1ccc(C[C@@H]2NC(=O)[C@H]([C@@H](C)O)NC(=O)[C@@H]3[C@@H]4CCN3C(=O)[C@@H]3Cc5cn(c6ccc(F)cc56)CCCCCCN(Cc5ccc(cc5)CCNC(=O)[C@]5(C)CCCN5C2=O)C(=O)CCC(=O)N[C@@H](C)C(=O)N[C@H](CNC(=O)COCCOCCNC(=O)COCCOCCNC(=O)CC[C@H](NC(=O)CCCCCCCCCCCCCCCCC(=O)O)C(=O)O)C(=O)N[C@@H](Cc2cccc(c2)CNC(=O)CO4)C(=O)N3)cc1` [Ex-18], the results for the Ki on PCSK9 [1] (setting [4]), on PCSK9 [2] and on PCSK9 [3] (setting [5]) were 0.023 nM, less than 1.26 nM and 0.021 nM, respectively.

For the compound `COc1ccc(C[C@@H]2NC(=O)[C@H]([C@@H](C)O)NC(=O)[C@@H]3[C@@H]4CCN3C(=O)[C@@H]3Cc5cn(c6ccc(F)cc56)CCCCCCN(Cc5ccc(cc5)CCNC(=O)[C@]5(C)CCCN5C2=O)C(=O)CCC(=O)N[C@@H](C)C(=O)N[C@H](CNC(=O)CCOCCOCC[N+](C)(C)CCNC(=O)CCCCCCCCCCCCCCCCC(=O)O)C(=O)N[C@@H](Cc2cccc(c2)CNC(=O)CO4)C(=O)N3)cc1` [Ex-23], the Ki on PCSK9 [1] (setting [4]) was less than 0.006 nM; at PCSK9 [2], less than 1.26 nM; at PCSK9 [3] (setting [5]), 0.007 nM.

As to `COc1ccc(C[C@@H]2NC(=O)[C@H]([C@@H](C)O)NC(=O)[C@@H]3[C@@H]4CCN3C(=O)[C@@H]3Cc5cn(c6ccc(F)cc56)CCCCCCN(Cc5ccc(cc5)CCNC(=O)[C@]5(C)CCCN5C2=O)C(=O)CCC(=O)N[C@@H](C)C(=O)N[C@H](CNC(=O)COCCOCCNC(=O)COCCOCCNC(=O)CC[C@H](NC(=O)CCCCC[N+](C)(C)CCNC(=O)CCCCCCCCCCCCCCCCC(=O)O)C(=O)O)C(=O)N[C@@H](Cc2cccc(c2)CNC(=O)CO4)C(=O)N3)cc1` [Ex-5], the figures for the Ki on PCSK9 [1], at PCSK9 [2] and at PCSK9 [3] were less than 0.006 nM, less than 1.26 nM and 0.007 nM, respectively.
